Assay results as given in patent publication US20240000741A1, “ALL-TRANS RETINOIC ACID ENHANCES RADIOTHERAPY AND OVERCOMES IMMUNE SUPPRESSION FOR CANCER THERAPY” (The University of Chicago, priority 2022, published 2024).

Columns and labels:
Type in all cases: in vivo, mouse
CD11b+CD11c+ cells = test: Quantitative real-time PCR of cells sorted from tumors
Text: Total RNA from tumor and CD11c+ cells isolated from tumors with a kit sold under the tradename EASYSEP® Mouse CD11c positive selection kit II (STEMCELL Technologies, Vancouver, Canada) was extracted with a kit sold under the tradename QUICK-RNA® Miniprep Plus kit (R1058, Zymo Research, Irvine, California, United States of America). cDNA was synthesized with a High Capacity cDNA Reverse Transcription kit (4368814, Applied Biosystems, Waltham, Massachusetts, United States of America). Real-time PCR was performed with a kit containing fluorescent chemicals sold under the tradename SYBR™ (Molecular Probes, Sunnyvale, California, United States of America), i.e., the SYBR™ Green PCR Master Mix (4309155, Applied Biosystems, Waltham, Massachusetts, United States of America) and results were normalized to β-actin. Primers used: […]
Relative gene expression was calculated using the 2^−ΔΔCT approach.

immune cells in tumors = test: Flow cytometric analysis of immune cells in treated MC38 tumors and draining lymph nodes
Text: Single cell suspensions were obtained as previously described (40). Cells were blocked with anti-Fc receptor (2.4 G2, BioXCell, Lebanon, New Hampshire, United States of America) and stained for live/dead with Zombie UV, followed staining using antibodies against CD45, CD4, CD8, NK1.1, CD11b, CD11c, Ly6C, Ly6G, F4/80, CD44, CD62L.
The following antibodies were used for high-dimensional flow analysis: BV605-CX3CR, BV650-XCR1, PB-CD11 b, BV510-CD24, BV711-CD64, BV785-F4/80, AF532-CD45, PerCP-Cy5.5-1-A/I-E, PerCP-eFluor710-Flt3, PE-Cy7-CD11c, FITC-Ly6C, PE-iNOS, PE-Dazzle 594-CD103, APC-TNF, Alexa Fluor 700-CD206, and APC-Cy7-SIRPα. For IFN-γ and GrzB (515407) staining, cells were cultured with PMA/ionomycin and brefeldin A (423303, BioLegend, San Diego, California, United States of America) for 6 hours followed by intracellular staining using BD fix/perm intracellular staining kit (554714, BD Biosciences, Franklin Lakes, New Jersey, United States of America). For TNF-α staining, cells were stimulated by PMA/ionomycin and brefeldin A for 4 hours followed by intracellular staining. Foxp3 (17-5773-82, Thermo Fisher Scientific, Waltham, Massachusetts, United States of America) Ki67 (Clone 16-A8, BioLegend, San Diego, California, United States of America) and iNOS staining were performed following Foxp3 staining protocol (00-5523-00, Thermo Fisher Scientific, Waltham, Massachusetts, United States of America). Cells were analyzed on Fortessa flow cytometer (BD Biosciences, Franklin Lakes, New Jersey, United States of America) or on Aurora spectral cytometer (Cytek Biosciences, Fremont, California, United States of America. Data was analyzed with software sold under the tradename FLOWJO software (FlowJo LLC, Ashland, Oregon, United States of America).
Immune cells in tumors 4 days after the start of the treatment were examined. […] In CD11b+ subsets, Ly6C^+ cells, including CD11c^+Ly6C^+ cells, increased by 4-fold in tumors receiving the combination treatment. […] Next, the DC population was examined by analyzing high-dimensional flow cytometry data using traditional dendritic cell (DC) markers. Monocyte-derived dendritic cells (MoDCs) (Ly6C^+CD11 b^+CD11c^+ MHC-II^+CXCR3^+CD64^+SIRPα^+CD206^− cells), a low level of type two dendritic cells (DC2s) (Ly6C^−CD11b^+CD11c^+MHC-11^+CXCR3^+CD64^−SIRPα+CD206^−) and a very low level of type one dendritic cells (DC1s) (Ly6C^−CD11b^−CD11c^+MHC-11^+ CXCR1^+CD103^+CD64^−) were detected in IR and RA treated tumors.

[1] = test system: MC38 cell antigen-specific CD8+ T cells; test: ELISPOT assay for IFN-γ-secreting CD8+ T cells
Method: MC38 cells were irradiated (40 Gy) and cultured overnight. CD8^+ T cells were isolated with EasySep mouse CD8+ positive selection kit (18953, STEMCELL Technologies, Vancouver, Canada) from draining lymph nodes of tumor-bearing mice on day 8 after treatment. 2×10^5 isolated CD8^+ T cells and 2×10^4 irradiated MC38 cells were plated onto 96-well PVDF-backed microplates coated with monoclonal antibody specific for mouse IFN-γ for 72 hours. Spots were developed by following the manufacturer's protocol (BD Biosciences, Franklin Lakes, New Jersey, United States of America).

[2] = test system: MC38 colon carcinoma tumors; test: MC38 tumor growth after local ablative IR and/or RA
[3] = cells sorted from treated tumors
[4] = radiation and RA treatment compared to controls
[5] = IR and RA treatment, high-dimensional flow cytometry
[6] = IR+RA vs single treatment, day 8
[7] = IR+RA, 4 days after start of treatment
[8] = after IR+RA combination treatment

Structure (SMILES): CC1=C(/C=C/C(C)=C/C=C/C(C)=C/C(=O)O)C(C)(C)CCC1 [RA, all-trans retinoic acid]
- mRNA level of TNF-α in sorted CD11b+CD11c+ cells (CD11b+CD11c+ cells; [3]): increased
- mRNA level of iNOS in sorted CD11b+CD11c+ cells (CD11b+CD11c+ cells; [3]): increased
- transcription of CXCL9 in CD11c+ cells (CD11b+CD11c+ cells; [4]): increased significantly
- transcription of CXCL10 in CD11c+ cells (CD11b+CD11c+ cells; [4]): increased significantly
- transcription of CXCL11 in CD11c+ cells (CD11b+CD11c+ cells; [4]): increased significantly
- expression of TNF-α in CD11b+ cells (immune cells in tumors; IR and RA combination treatment): Elevated expression
- DC1 population (immune cells in tumors; [5]): not changed
- DC2 population (immune cells in tumors; [5]): not changed
- level of monocyte-derived dendritic cells (MoDCs) (immune cells in tumors; [5]): significantly induced
- increase of CD8+ T cells infiltration in tumors (immune cells in tumors; IR+RA compared to IR treated tumors, eight days after treatment commencement, p<0.05): about 3 fold
- ratio of CD8+ IFN-γ+ cells to Treg (immune cells in tumors; IR+RA compared to any single treatment, day 8): increased significantly
- percentage of CD8+ IFN-γ+ cells in tumors and draining lymph nodes (immune cells in tumors; [6]): increased
- percentage of CD8+GzmB+ cells in tumors and draining lymph nodes (immune cells in tumors; [6]): increased
- CD11b+iNOS+ cells in tumors (immune cells in tumors; [7]): 11.1%
- increase of Ly6C+ cells, including CD11c+Ly6C+ cells, in CD11b+ subsets (immune cells in tumors; [7]): 4 fold
- percentage of CD4+ T cells in tumors (immune cells in tumors; IR+RA, day 4 post treatment): no significant change
- percentage of CD8+ T cells in tumors (immune cells in tumors; IR+RA, day 4 post treatment): only a marginal change
- percentage of Foxp3+ (Treg) cells in CD4+ T cells (immune cells in tumors; IR+RA, day 8): decreased
- CD11b+CD11c+iNOS+TNF-α+ cells in tumors (immune cells in tumors; IR+RA, day 8, compared to any other treatment group): more
- number of iNOS-producing Inf-MACs in tumors (immune cells in tumors; IR+RA, tumors in CCR2 KO hosts vs WT mice): significantly lower
- CD11b+iNOS+ cells in tumors (immune cells in tumors; RA alone, 4 days after start of treatment): 1.8%
- Inf-MAC induction by IR plus RA (immune cells in tumors; Rag1−/− hosts given IFN-γ−/− T cells compared to WT T cells): significantly abrogated
- Ki67+ proliferation in DLN, CD8+ and CD4+ (immune cells in tumors; [8]): increased
- percentage of naïve T cells (CD62L+CD44−) in DLN, CD8+ and CD4+ (immune cells in tumors; [8]): decreased
- tumor antigen-specific CD8+ T cell priming in draining lymph nodes (IFN-γ ELISPOT) ([1]; IR+RA compared to control or single treatments): significantly enhanced
- priming of CD8+ T cells from DLN of non-irradiated tumors (IFN-γ production) ([1]; primary tumor received IR+RA combination treatment): augmented
- MC38 tumor growth ([2]; IR (15 Gy) plus RA 400 μg/dose oral gavage, compared to untreated controls or any single treatment): synergistically inhibited tumor growth
- complete tumor regression ([2]; IR (15 Gy) plus RA combination treatment): 17 of 19
- tumor inhibition ([2]; IR with RA administered by i.p. injection): Significant tumor inhibition effects
- tumor inhibition ([2]; IR with RA at a lower dose (200 μg/dose) by oral gavage): Significant tumor inhibition effects
- tumor inhibition ([2]; IR with slow RA-releasing pellets implanted subcutaneously): Significant tumor inhibition effects
- MC38 tumor growth ([2]; IR+RA, tumors grown in Rag1−/− mice, in contrast to wild type mice): did not respond
- survival ([2]; RA alone): ≤ 50 days
- MC38 tumor growth ([2]; RA alone, 400 μg/dose oral gavage): no significant effect
- MC38 tumor growth ([2]; higher dose of RA alone (800 μg/mouse/dose) for 7 days): inhibited
